Laboratory results taken from PMC3272328 (2011).
Positions count from the first letter of the chain named.

How the values were obtained:
Type in all cases: biochemical
soluble guanylyl cyclase [1] = target: T1, soluble guanylyl cyclase (Bos taurus, UniProt P16068+P19687); experiment: cGMP production by ELISA at varied GTP
T1 sequence (P16068 1-619): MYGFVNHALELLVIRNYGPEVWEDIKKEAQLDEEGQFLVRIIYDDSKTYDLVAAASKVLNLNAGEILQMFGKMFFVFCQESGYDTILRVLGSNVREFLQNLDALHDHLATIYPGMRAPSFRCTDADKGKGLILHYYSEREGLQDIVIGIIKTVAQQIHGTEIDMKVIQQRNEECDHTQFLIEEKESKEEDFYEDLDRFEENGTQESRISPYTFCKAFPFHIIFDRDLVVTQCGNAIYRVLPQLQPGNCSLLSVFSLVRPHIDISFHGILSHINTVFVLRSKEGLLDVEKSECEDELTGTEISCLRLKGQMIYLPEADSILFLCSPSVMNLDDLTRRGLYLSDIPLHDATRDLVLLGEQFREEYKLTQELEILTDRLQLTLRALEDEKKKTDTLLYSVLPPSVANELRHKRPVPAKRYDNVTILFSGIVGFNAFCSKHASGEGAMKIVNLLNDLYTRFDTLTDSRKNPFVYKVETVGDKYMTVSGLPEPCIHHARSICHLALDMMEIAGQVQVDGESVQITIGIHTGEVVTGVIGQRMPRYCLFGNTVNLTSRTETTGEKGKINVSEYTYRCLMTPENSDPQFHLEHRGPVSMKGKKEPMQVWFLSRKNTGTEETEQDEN
T1 sequence (P19687 1-691): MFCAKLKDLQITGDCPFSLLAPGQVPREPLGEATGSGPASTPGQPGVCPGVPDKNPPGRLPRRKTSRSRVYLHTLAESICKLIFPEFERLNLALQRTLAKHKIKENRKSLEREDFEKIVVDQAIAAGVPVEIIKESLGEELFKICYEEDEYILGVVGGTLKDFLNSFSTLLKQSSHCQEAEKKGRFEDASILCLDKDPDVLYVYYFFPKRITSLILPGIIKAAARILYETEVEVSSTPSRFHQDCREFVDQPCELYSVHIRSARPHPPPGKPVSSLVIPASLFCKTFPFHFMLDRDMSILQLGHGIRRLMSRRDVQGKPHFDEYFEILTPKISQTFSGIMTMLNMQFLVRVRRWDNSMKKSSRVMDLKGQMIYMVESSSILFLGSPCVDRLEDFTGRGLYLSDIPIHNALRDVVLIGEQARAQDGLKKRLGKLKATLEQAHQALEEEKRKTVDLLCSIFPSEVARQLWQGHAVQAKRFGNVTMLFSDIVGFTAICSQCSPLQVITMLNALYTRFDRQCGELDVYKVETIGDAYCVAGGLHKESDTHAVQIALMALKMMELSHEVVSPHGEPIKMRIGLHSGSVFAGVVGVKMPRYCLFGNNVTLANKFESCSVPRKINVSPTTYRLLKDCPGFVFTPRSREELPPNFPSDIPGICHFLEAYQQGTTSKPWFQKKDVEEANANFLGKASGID

soluble guanylyl cyclase [2] = target: T2, soluble guanylyl cyclase (Homo sapiens, UniProt Q02108+Q02153); experiment: cGMP ELISA enzyme assay
T2 sequence (Q02153 1-619): T1 sequence (P16068 1-619) with D126E, S290L, T574S, E615K, E618D, N619D
T2 sequence (Q02108 1-690): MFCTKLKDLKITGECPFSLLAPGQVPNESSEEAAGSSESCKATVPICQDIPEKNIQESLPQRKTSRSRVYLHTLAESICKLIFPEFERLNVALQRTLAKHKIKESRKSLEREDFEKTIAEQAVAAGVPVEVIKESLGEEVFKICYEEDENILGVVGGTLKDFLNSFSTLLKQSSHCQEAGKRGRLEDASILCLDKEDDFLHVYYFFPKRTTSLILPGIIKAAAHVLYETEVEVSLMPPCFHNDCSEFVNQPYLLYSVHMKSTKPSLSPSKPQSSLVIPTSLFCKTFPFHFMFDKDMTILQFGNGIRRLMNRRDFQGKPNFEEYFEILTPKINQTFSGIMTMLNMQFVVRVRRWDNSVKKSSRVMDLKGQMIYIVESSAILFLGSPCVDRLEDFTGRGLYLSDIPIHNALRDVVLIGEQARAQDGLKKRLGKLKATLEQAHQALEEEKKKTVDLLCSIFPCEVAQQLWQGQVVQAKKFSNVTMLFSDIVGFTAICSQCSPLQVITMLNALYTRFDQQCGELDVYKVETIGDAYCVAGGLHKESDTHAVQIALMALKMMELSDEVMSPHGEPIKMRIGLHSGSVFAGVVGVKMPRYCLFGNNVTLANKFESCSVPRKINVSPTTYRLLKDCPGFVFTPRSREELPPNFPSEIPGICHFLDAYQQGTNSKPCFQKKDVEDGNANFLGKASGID

soluble guanylyl cyclase [3] = target: T1, soluble guanylyl cyclase; experiment: cGMP ELISA enzyme assay

SMILES	cGMP production by ELISA at varied GTP; Lineweaver-Burk plot (soluble guanylyl cyclase [1])	cGMP ELISA enzyme assay (soluble guanylyl cyclase [2])	Ki (soluble guanylyl cyclase [3])
Nc1nc2c(ncn2[C@@H]2O[C@H](COP(=O)(O)OP(=O)(O)OP(=O)(O)O)[C@@H](O)[C@H]2O)c(=O)[nH]1 [guanosine triphosphate]	we measured the amount of inhibition while varying the concentrations of GTP and carbovir triphosphate		
Nc1nc(=O)c2ncn([C@H]3C=C[C@@H](COP(=O)(O)OP(=O)(O)OP(=O)(O)O)C3)c2[nH]1 [carbovir triphosphate]		able to inhibit the activity of purified soluble guanylyl cyclase (both purified native bovine enzyme and recombinant human enzyme)	55 µM
